We go through 9 compounds from PubChem BioAssay (NCI).

Among the test systems are NCI-H226 lung; COLO 205 colon; HCT-116 colon; OVCAR-8 ovarian; HOP-92 NSCLC; KM12 colon; PC-3 prostate; SK-OV-3 ovarian; HOP-62 NSCLC; A549 NSCLC.
Common to all, as to experiment: inhibition of tumour cell growth, NCI panel, 48 h

The structures appear in SMILES notation.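 Interpolation was linear, between the two tested concentrations surrounding the appropriate level; five concentrations were tested over 48 hours in 96-well plates. GI50 marks 50% less growth. At the TGI there is no net growth.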

As to `[N-]=[N+]=Nc1cc(=O)[nH]nc1-c1ccccc1`, the TGI in the test with NCI-H226 lung, in the test with COLO 205 colon, in the test on HCT-116 colon, with OVCAR-8 ovarian, in the test on HOP-92 NSCLC and with KM12 colon was greater than 100 µM in each case. Further, the TGI with PC-3 prostate, in the test with SK-OV-3 ovarian, in the test on HOP-62 NSCLC and in the test with A549 NSCLC was greater than 100 µM throughout.
For `C#COc1cccc(Nc2c(C#N)cnc3ncc(NC(=O)CCl)cc23)c1`, the GI50 with NCI-H226 lung is greater than 62.5 µM; in the test with COLO 205 colon, 40.1 µM; in the test with HCT-116 colon, 14.8 µM; with OVCAR-8 ovarian, 46 µM; in the test with HOP-92 NSCLC, greater than 62.5 µM; in the test with KM12 colon, 56.7 µM. Moreover, the GI50 is 32.5 µM with PC-3 prostate, greater than 62.5 µM in the test on SK-OV-3 ovarian, greater than 62.5 µM in the test with HOP-62 NSCLC and 46.9 µM in the test with A549 NSCLC. Besides, the TGI in the test with NCI-H226 lung, in the test on COLO 205 colon, in the test with HCT-116 colon, in the test with OVCAR-8 ovarian, in the test on HOP-92 NSCLC and with KM12 colon was greater than 62.5 µM throughout. The TGI in the test with PC-3 prostate, in the test with SK-OV-3 ovarian, in the test on HOP-62 NSCLC and with A549 NSCLC was greater than 62.5 µM each time.
In the case of `CCOC(=O)/C=C(/C)Sc1cc(O)c2ccccc2c1O`, the GI50 in the test on NCI-H226 lung was 14.5 µM; in the test on COLO 205 colon, 7.22 µM; in the test with HCT-116 colon it was 2.05 µM; in the test on OVCAR-8 ovarian, 2.99 µM; in the test on HOP-92 NSCLC it was 3.21 µM; with KM12 colon it was 12.9 µM. For the same compound, the GI50 with PC-3 prostate is 4.59 µM; in the test with SK-OV-3 ovarian it was 13.8 µM; with HOP-62 NSCLC, 3.02 µM; in the test on A549 NSCLC, 2.5 µM. The TGI came out at 32.8 µM in the test on NCI-H226 lung; 20.7 µM in the test with COLO 205 colon; 4.95 µM in the test on HCT-116 colon; 12.9 µM in the test on OVCAR-8 ovarian; 11.9 µM with HOP-92 NSCLC; 26.8 µM in the test with KM12 colon. The TGI stood at 22.8 µM in the test on PC-3 prostate, 44.5 µM in the test with SK-OV-3 ovarian, 12.9 µM in the test on HOP-62 NSCLC and 5.99 µM in the test with A549 NSCLC.
With `C1=C\COCc2cc(ccc2OCCN2CCCC2)Nc2nccc(n2)-c2cccc(c2)COC/1`, the GI50 in the test with NCI-H226 lung is 3.19 µM; with COLO 205 colon, 1.35 µM; with HCT-116 colon it was 1.03 µM; in the test with OVCAR-8 ovarian, 3.22 µM; in the test on HOP-92 NSCLC, 1.34 µM; in the test on KM12 colon, 0.348 µM. Moreover, the GI50 with PC-3 prostate is 1.61 µM; with SK-OV-3 ovarian, 3.62 µM; in the test with HOP-62 NSCLC it was 2.47 µM; with A549 NSCLC it was 2.03 µM. The TGI came out at 5.09 µM in the test with NCI-H226 lung; 4.29 µM in the test on COLO 205 colon; 4.07 µM with HCT-116 colon; 7.32 µM with OVCAR-8 ovarian; 4.86 µM in the test with HOP-92 NSCLC; 3.74 µM with KM12 colon. Also, the TGI with PC-3 prostate was 5.43 µM; in the test with SK-OV-3 ovarian, 6.19 µM; with HOP-62 NSCLC it was 6.56 µM; with A549 NSCLC it was 5.72 µM.
Consider `N#Cc1c(N/N=C/c2ccc(Cl)cc2Cl)nc(N)nc1N1CCCC1`, for which the GI50 in the test with NCI-H226 lung was 15.7 µM; with COLO 205 colon, 88.1 µM; with HCT-116 colon, 20.9 µM; in the test on OVCAR-8 ovarian, 27.5 µM; with HOP-92 NSCLC it was 17.6 µM; with KM12 colon, greater than 100 µM. Besides, the GI50 with PC-3 prostate was 12.2 µM; with SK-OV-3 ovarian it was 47.8 µM; in the test on HOP-62 NSCLC it was 15.2 µM; with A549 NSCLC, 29.6 µM. Further, the TGI with NCI-H226 lung is greater than 100 µM; in the test with COLO 205 colon it was greater than 100 µM; in the test on HCT-116 colon, greater than 100 µM; in the test on OVCAR-8 ovarian, greater than 100 µM; with HOP-92 NSCLC it was 43.7 µM; in the test on KM12 colon, greater than 100 µM. In addition, the TGI in the test on PC-3 prostate is 38.4 µM; in the test with SK-OV-3 ovarian it was greater than 100 µM; in the test on HOP-62 NSCLC, 32.4 µM; in the test with A549 NSCLC, 65 µM.
For `OCc1ccn2c1[C@@H](O)CC2`, the TGI in the test with NCI-H226 lung, with COLO 205 colon, in the test with HCT-116 colon, in the test on OVCAR-8 ovarian, with HOP-92 NSCLC and with KM12 colon was greater than 100 µM in each case. The TGI with PC-3 prostate, in the test on SK-OV-3 ovarian, with HOP-62 NSCLC and in the test on A549 NSCLC was greater than 100 µM each time.
As to `COc1ccc(-c2coc3c4c(ccc3c2=O)OCO4)cc1OC`, the TGI in the test on NCI-H226 lung, in the test with COLO 205 colon, with HCT-116 colon, in the test on OVCAR-8 ovarian, with HOP-92 NSCLC and in the test with KM12 colon was greater than 100 µM each time. Also, the TGI is greater than 100 µM in the test on PC-3 prostate, 83.6 µM with SK-OV-3 ovarian, greater than 100 µM in the test on HOP-62 NSCLC and greater than 100 µM in the test on A549 NSCLC.
Turning to `CCn1sc2ccccc2c1=O`, the TGI in the test with NCI-H226 lung turned out to be 50.7 µM; with COLO 205 colon, 29.3 µM; in the test on HCT-116 colon, 30.7 µM; with OVCAR-8 ovarian, 35.8 µM; in the test with HOP-92 NSCLC it was 22.5 µM; in the test on KM12 colon, 18.8 µM. The TGI is 29.3 µM in the test on PC-3 prostate, greater than 54.9 µM with SK-OV-3 ovarian, 34.3 µM with HOP-62 NSCLC and 40.4 µM in the test on A549 NSCLC.
Regarding `CCCOc1ccc2sc(NC(=O)OC)nc2c1`, the GI50 with NCI-H226 lung is greater than 100 µM; in the test on COLO 205 colon, 0.838 µM; in the test on HCT-116 colon, 1.06 µM; in the test on OVCAR-8 ovarian it was 5 µM; in the test on HOP-92 NSCLC, 3.38 µM; in the test with KM12 colon, 0.627 µM. Moreover, the GI50 in the test with PC-3 prostate is 3.48 µM; in the test on SK-OV-3 ovarian, 4.36 µM; with HOP-62 NSCLC, 4.9 µM; with A549 NSCLC, 4.2 µM. The TGI with NCI-H226 lung was greater than 100 µM; in the test with COLO 205 colon it was 13.5 µM; in the test with HCT-116 colon it was greater than 100 µM; with OVCAR-8 ovarian, greater than 100 µM; with HOP-92 NSCLC, greater than 100 µM; in the test on KM12 colon, greater than 100 µM. Moreover, the TGI in the test on PC-3 prostate, in the test on SK-OV-3 ovarian, in the test on HOP-62 NSCLC and with A549 NSCLC was greater than 100 µM throughout.
